In patent US12698523B2, “Enhancement of nucleic acid polymerization by aromatic compounds” (priority 2019, dated 2026):

Columns and labels:
DNA polymerase [1] = experiment: Sequencing by Expansion (SBX) of primer extension products, nanopore reads aligned to template; assay type: biochemical
Text: To investigate the accuracy of PEM-dependent enhancement of XNTP polymerization, primer extension products were sequenced using the SBX protocol. Briefly, the constrained Xpandomer products of XNTP polymerization are cleaved to generate linearized Xpandomers. This is accomplished by first quenching the extension reaction with a solution containing 100 Mm EDTA, 2 Mm THPTA, and 2% Tween-20. Then the sample is subjected to amine modification with a solution of 1 M NaHCO3 and 1 M succinic anhydride in DMF. Cleavage of the phosphoramidate bonds is carried out with 37% HCl and linearized Xpandomers are purified with QIAquick columns (QIAGEN, Inc.).
For sequencing, protein nanopores are prepared by inserting a-hemolysin into a DphPE/hexadecane bilayer member in buffer B1, containing 2 M NH4Cl and 100 Mm HEPES, Ph 7.4. The cis well is perfused with buffer B2, containing 0.4 M NH4Cl, 0.6 M GuCl, and 100 Mm HEPES, Ph 7.4. The Xpandomer sample is heated to 70° C. for 2 minutes, cooled completely, then a 2 μL sample is added to the cis well. A voltage pulse of 90 Mv/390 Mv/10 μs is then applied and data is acquired via Labview acquisition software.
Sequence data is analyzed by histogram display of the population of sequence reads from a single SBX reaction. […]

DNA polymerase [2] = experiment: Screen of PEMs for enhancement of XNTP polymerization (primer extension reaction, gel electrophoresis); assay type: biochemical; settings: FIG. 4 gel; no PEM additive: up to only around 14 XNTPs
Text: The Sequencing by Expansion (SBX) methodology developed by the inventors provides significant performance enhancements in sequence read efficiency and accuracy of Xpandomers relative to native DNA. However, initial transcription of the sequence of the natural DNA template onto the measurable Xpandomer relies on the ability of DNA polymerase to utilize XNTPs as substrates (the generalized structure of an XNTP is discussed herein with reference to FIG. 1A and FIG. 2). […] In an effort to improve the efficiency and accuracy of XNTP polymerization into Xpandomers, several PEMs were screened for the ability to enhance DNA polymerase primer extension reactions using XNTPs as substrates.
A representative primer extension reaction may include the following reagents: 2 pmol primer, 2.2 pmol 45mer oligonucleotide template, 50 pmol of each XNTP (XATP, XCTP, XGTP, and XTTP), 50 Mm Tris HCl, Ph 6.79, 200 Mm NaCl, 20% PEG, 5% NMS, 0.5 nmol polyphosphate 60.19, 0.3 Mm MnCl2, and 0.6 μg of purified recombinant DNA polymerase protein. Reactions may be run for 1 hr at 23° C. Reaction products (i.e., constrained Xpandomers) are treated to cleave the phosphoramidate bonds, thereby generating linearized Xpandomers. Reaction products may be analyzed using gel electrophoresis on 4-12% acrylamide gels to resolve and visualize Xpandomer products of different lengths. For the PEM screen described above, PEMs were typically tested in the micro to millimolar range.
Again, this PEM activity is specific for compound 2, as other unrelated aromatic compounds had no effect (lanes 2-7).

[3] = biological target: T1, C4552 (variant of DPO4 DNA polymerase, SEQ ID NO:1) (Saccharolobus solfataricus, UniProt Q97W02, A155G/A42V/D156R/D292Y/D294N/E291S/E324K/E325K/E327K/E79L/G187P/G299W/I153V/I189F/I248T/I295S/K152A/K317Q/K321Q/K56Y/K78D/L293W/M76W/N188Y/P184Q/Q82W/Q83G/R300S/S297Y/S86E/T290K/T301W/V289W/V296Q); experiment: XNTP polymerization on longer templates (88, 127, 227, 277 nucleotides); assay type: biochemical, Sulfolobus solfataricus; settings: 1 Mm compound; templates of 88, 127, 227, 277 nucleotides; 1-2 hr at 23° C.; FIG. 8
T1 construct: made in house
Experimental: Following the success of accurately replicating templates of up to 80 nucleotides in length into Xpandomers, XNTP polymerization reactions were conducted using four longer templates, consisting of 88, 127, 227, and 277 nucleotides in length. A variant of DPO4 DNA polymerase, referred to as C4552 (SEQ ID NO:1), was used in these polymerization reactions and reaction conditions were optimized for C4552 activity in the presence of PEM compound 1. Other suitable DPO4 polymerase variants include, but are not limited to, those of SEQ ID NO:s 2-5. In addition to 1 Mm compound 1, reaction additives included […] and 2.75 μg single-strand binding protein (Eco SSB). Extension reactions were carried out with 0.85 pmol template, 0.5 pmol oligonucleotide primer, and 1 nmol each XNTP in a final volume of 10 μL. Reactions were run in buffer composed of 50 Mm TrisCl, Ph 8.84, 200 Mm NH4Oac, and 20% PEG8K supplemented with 5% NMS, polyphosphate PP-60.20 in amounts of 3 or 4 nmol, and 2 Mm MnCl2. 1.2 μg purified recombinant DNA polymerase protein was used in each extension reaction and reactions were run for 1-2 hr at 23° C. […] Lanes 1-5 and 6-10 represent identical extension reactions with the exception of the amount of PP-60.20 additive, which was 3 nmol in lanes 1-5 and 4 nmol in lanes 6-10.

C4552 DNA polymerase = biological target: T2, C4552 DNA polymerase (Saccharolobus solfataricus, UniProt Q97W02, A155G/A42V/D156R/D292Y/D294N/E291S/E324K/E325K/E327K/E79L/G187P/G299W/I153V/I189F/I248T/I295S/K152A/K317Q/K321Q/K56Y/K78D/L293W/M76W/N188Y/P184Q/Q82W/Q83G/R300S/S297Y/S86E/T290K/T301W/V289W/V296Q); experiment: Primer extension assay with three 100mer templates derived from the HIV1, 2 and 3 genomes; assay type: biochemical, Sulfolobus solfataricus; settings: 0.5 Mm PEM; HIV1, HIV2, HIV3 100mer templates; 30 minutes at 23° C.; FIG. 9
T2 construct: made in house
Experimental: PEM activity of compounds 9-11 was tested in primer extension assays using three 100mer templates, derived from the HIV1, 2, and 3 genomes. Primer extension reactions included the following reagents: 75 Mm TrisCl, Ph 8.44, 175 Mm NH4Oac, 20% PEG8K, 5% NMS, 0.8 nmol PP-60.20, 0.6 Mm MnCl2, 2.3 μg Tth single-strand binding protein (SSB), 0.5 M or 1 M urea, 200 pmol each XNTP, 1.1 pmol template, 1 pmol oligonucleotide primer, 1.2 μg purified recombinant C4552 DNA polymerase, and 0.5 Mm PEM. 10 μL primer extension reactions were run for 30 minutes at 23° C. and reaction products were analyzed by gel electrophoresis.

[4] = biological target: T3, C4760 DNA polymerase (a variant of DPO4, SEQ ID NO:2) (Saccharolobus solfataricus, UniProt Q97W02, A155G/A42V/D156R/D292Y/D294N/E291S/E324K/E325K/E327K/E63R/E79L/G187P/G299W/I153V/I189F/I248T/I295S/K152A/K317Q/K321Q/K56Y/K78D/L293W/M76W/N188Y/P184Q/Q82W/Q83G/R300S/S297Y/S86E/T290K/T301W/V289W/V296Q); experiment: Primer extension assay with a 411mer amplicon template; assay type: biochemical, Sulfolobus solfataricus
T3 construct: made in house
Experimental: PEM activity of compound 15 was tested in primer extension assays using a 411mer amplicon template. Primer extension reactions included the following reagents: 50 Mm TrisCl, 200 Mm NH4Oac, 20% PEG8K, 5% NMS, 3 nmol PP-60.20, 2 Mm MnCl2, 2 μg Kod single-strand binding protein (SSB), 1 M urea, 250 pmol each XNTP, 1 pmol template, 1 pmol oligonucleotide primer, 1.2 μg purified recombinant C4760 DNA polymerase (a variant of DPO4, see SEQ ID NO:2), and 2 (lane 2) or 3 (lane 3) Mm PEM. 10 μL primer extension reactions were run for 20 minutes at 37° C. and reaction products were analyzed by gel electrophoresis. A representative gel showing primer extension products is presented in FIG. 12 (the position of a 277mer is indicated by the arrow). […] Remarkably, the polymerase is completely dependent upon the addition of PEM to the reaction in order to be capable of synthesizing these lengthy Xpandomer products. Even longer extension products may be obtained by optimizing various reaction parameters, e.g., extension time and/or concentrations of various additives.
PEM activity of compound 19, was tested in primer extension assays using the 411mer amplicon template. […] 10 μL primer extension reactions were run for 30 minutes at 37° C. and reaction products were analyzed by gel electrophoresis. […]

T3 sequence (Q97W02 other isoform, or with tags, fused parts or gaps with the stated changes): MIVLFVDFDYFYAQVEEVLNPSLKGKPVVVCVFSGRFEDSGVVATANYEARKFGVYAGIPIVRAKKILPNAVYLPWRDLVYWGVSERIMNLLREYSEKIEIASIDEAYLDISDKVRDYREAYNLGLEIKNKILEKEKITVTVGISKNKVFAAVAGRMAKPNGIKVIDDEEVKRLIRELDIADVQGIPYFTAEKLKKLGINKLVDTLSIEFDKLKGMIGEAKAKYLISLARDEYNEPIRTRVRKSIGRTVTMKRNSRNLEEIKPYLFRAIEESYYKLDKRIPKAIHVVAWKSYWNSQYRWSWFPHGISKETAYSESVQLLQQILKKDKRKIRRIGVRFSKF
T1 sequence (Q97W02 other isoform, or with tags, fused parts or gaps with the stated changes): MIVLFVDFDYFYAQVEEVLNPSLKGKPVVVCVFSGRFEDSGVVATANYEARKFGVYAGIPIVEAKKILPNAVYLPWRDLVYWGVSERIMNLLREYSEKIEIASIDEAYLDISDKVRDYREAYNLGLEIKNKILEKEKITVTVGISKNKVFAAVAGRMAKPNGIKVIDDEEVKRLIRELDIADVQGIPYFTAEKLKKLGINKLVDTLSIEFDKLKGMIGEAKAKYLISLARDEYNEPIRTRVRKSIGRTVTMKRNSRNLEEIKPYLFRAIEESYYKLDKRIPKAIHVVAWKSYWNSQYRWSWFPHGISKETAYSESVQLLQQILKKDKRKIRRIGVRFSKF

## O=C(O)c1ccc(-n2cc(-c3cccc(-c4cn(-c5ccc(C(=O)O)c(O)c5)nn4)n3)nn2)cc1O [Compound 1, 4,4′-(pyridine-2,6-diylbis(1H-1,2,3-triazole-4,1-diyl))bis(2-hydroxybenzoic acid)]
DNA polymerase [1]; 45mer template, FIG. 6B, without additive reads not accurate past around base 18
  accuracy of SBX sequence reads: increased the accuracy of the sequence reads across the entire length of the 45mer template
DNA polymerase [1]; 60mer and 80mer templates, FIGS. 7A and 7B
  accuracy of SBX sequence reads: enabled accurate sequence reads completely to the end of each of these longer templates
DNA polymerase [2]
  DNA polymerase-mediated primer extension with XNTPs (length of extension products): considerably longer extension products
[3]
  polymerization of XNTPs into Xpandomer copies of long templates: complete Xpandomer copies of each longer template
C4552 DNA polymerase
  polymerization of XNTPs into full length Xpandomer copies (PEM activity): enables polymerization of XNTPs into full length Xpandomer copies of the three different 100mer templates

## CCOC(=O)c1cc(-c2cn(-c3ccc(O)c(C(=O)O)c3)nn2)nc(-c2cn(-c3ccc(O)c(C(=O)O)c3)nn2)c1 [Compound 15, 5,5′-((4-(ethoxycarbonyl)pyridine-2,6-diyl)bis(1H-1,2,3-triazole-4,1-diyl))bis(2-hydroxybenzoic acid)]
[4]; 2 or 3 Mm PEM, 20 minutes at 37° C., FIG. 12
  polymerization of XNTPs into lengthy Xpandomer copies (PEM activity): enables polymerization of XNTPs into lengthy Xpandomer copies of the 411mer template in a manner comparable to that of compound 14

## NC(=O)c1cc(-c2cn(-c3ccc(C(=O)O)c(O)c3)nn2)nc(-c2cn(-c3ccc(C(=O)O)c(O)c3)nn2)c1 [Compound 19, 4,4′-((4-carbamoylpyridine-2,6-diyl)bis(1H-1,2,3-triazole-4,1-diyl))bis(2-hydroxybenzoic acid)]
[4]; 0.5, 1, or 1.5 Mm PEM, 30 minutes at 37° C., FIG. 14
  polymerization of XNTPs into lengthy Xpandomer copies (PEM activity): enables polymerization of XNTPs into lengthy Xpandomer copies of the 411mer template, albeit in a manner less efficient than that of compound 14
